Measured values taken from US20200157638A1, “BIOMARKERS AND PATIENT SELECTION STRATEGIES” (SIERRA ONCOLOGY, INC., priority 2017, published 2020).

Assays:
OVCAR-3 xenograft [1] = assay: OVCAR-3 xenograft model of HGSOC, SRA737 monotherapy (Example 2); format: in vivo; conditions: 100 mg/kg, 3 cycles, 5 days on and 2 days off; FIG. 6B
From the text: The OVCAR-3 tumor cell line was derived from a platinum insensitive patient and harbors an amplification of CCNE1 (encoding cyclin E) and mutation in TP53 (encoding p53), two genomic alterations described herein to contribute to Chk1 inhibitor sensitivity.

DU-145 = assay: In vitro growth inhibition of cancer cell lines by SRA737; format: cell-based; conditions: DU-145 metastatic prostate cancer cell line; TP53 and RB1 mutations, KRAS amplification; FIG. 4
From the text: (§1) In cancer cells, replication stress induced by oncogenes (e.g., MYC and RAS oncogenes) and/or loss of function in tumor suppressors (e.g., TP53) results in persistent DNA damage and genomic instability, a trigger of the DDR network. […] SK-BR-3 is a breast cancer cell line harboring a deleterious mutation is TP53 and amplification in c-MYC. HT-29 is a colorectal cancer (CRC) cell line harboring a deleterious mutation in the tumor suppressor gene, adenomatous polyposis coli (APC), an amplification in c-MYC, and an activation mutation in the oncogenes, BRAF and PIK3CA. DU-145 is metastatic prostate cancer cell line harboring a deleterious mutation in the tumor suppressors TP53 and RB1, an amplification in KRAS, and alterations of the DNA damage repair genes TP53B1, MLH1 and MSH3. A673 is a rhabdomyosarcoma cell line harboring genetic alterations in the tumor suppressor genes, CDKN2A and CDKN2B and genetic alterations in the DNA damage repair genes BRCA1, Rad50 and Rad51D. OVCAR-3 is an ovarian cancer cell line harboring a deleterious mutations in the tumor suppressors TP53 and RB1 and an amplification of CCNE1. […] The results of these in vitro experiments confirm that cancer cells with genetic alterations in tumor suppressor genes, oncogenes, and/or DNA damage repair genes are sensitive to inhibition of Chk1.

SK-BR-3 = assay: as above; format: cell-based; conditions: SK-BR-3 breast cancer cell line; TP53 mutation, c-MYC amplification; FIG. 4
From the text: as §1

HT-29 = assay: as above; format: cell-based; conditions: HT-29 colorectal cancer cell line; APC mutation, c-MYC amplification, BRAF and PIK3CA activation; FIG. 4
From the text: as §1

OVCAR-3 = assay: as above; format: cell-based; conditions: OVCAR-3 ovarian cancer cell line; TP53 and RB1 mutations, CCNE1 amplification; FIG. 5
From the text: as §1

A673 = assay: as above; format: cell-based; conditions: A673 rhabdomyosarcoma cell line; CDKN2A/CDKN2B and BRCA1, Rad50, Rad51D alterations; FIG. 4
From the text: as §1

OVCAR-5 = assay: as above; format: cell-based; conditions: OVCAR-5 ovarian cancer cell line; KRAS activation, CCNE1 overexpression; FIG. 5
From the text: as §1

OVCAR-3 xenograft [2] = assay: OVCAR-3 xenograft model, SRA737 versus Olaparib (Example 3); format: in vivo, mouse; conditions: 100 mg/kg

N#Cc1cnc(Nc2cc(NCC3CNCCO3)c(C(F)(F)F)cn2)cn1 (stereo not drawn) [SRA737, 5-[[4-[[morpholin-2-yl]methylamino]-5-(trifluoromethyl)-2-pyridyl]amino]pyrazine-2-carbonitrile]
tolerability (body weight loss) (OVCAR-3 xenograft [1]): well tolerated as demonstrated by minimal body weight loss | sensitivity to Chk1 inhibition (growth inhibition) (DU-145): demonstrated sensitivity to Chk1 inhibition | sensitivity to Chk1 inhibition (growth inhibition) (SK-BR-3): demonstrated sensitivity to Chk1 inhibition | sensitivity to Chk1 inhibition (growth inhibition) (HT-29): demonstrated sensitivity to Chk1 inhibition | sensitivity to Chk1 inhibition (growth inhibition) (OVCAR-3): demonstrated sensitivity to Chk1 inhibition | sensitivity to Chk1 inhibition (growth inhibition) (A673): demonstrated sensitivity to Chk1 inhibition | sensitivity to Chk1 inhibition (growth inhibition) (OVCAR-5): demonstrated sensitivity to Chk1 inhibition | tumor growth as compared to Olaparib (OVCAR-3 xenograft [2]; FIG. 7A): significantly reduced tumor growth | body weight (OVCAR-3 xenograft [2]; FIG. 7B): not significantly altered
